Source: patent US5298652A, “N-substituted glycines, inhibitors of phospholipase A2” (Hoffmann-La Roche Inc., priority 1992, dated 1994)

Columns and labels:
[1] = biological target: T1, HSF-PLA2 (extracellular PLA2 obtained from human synovial fluid) (Homo sapiens, UniProt P14555); experiment: Assay for inhibition of HSF-PLA2 in vitro; assay type: biochemical; conditions: read-out: % Inhib of HSF-PLA2; for inhibition at 5 µM: 5 μM test compound; for inhibition at 1 µM: 1 μM test compound
T1 construct: extracellular enzyme obtained from human synovial fluid; from tissue; host or cells: human synovial fluid (pooled)
T1 sequence (P14555 21-144): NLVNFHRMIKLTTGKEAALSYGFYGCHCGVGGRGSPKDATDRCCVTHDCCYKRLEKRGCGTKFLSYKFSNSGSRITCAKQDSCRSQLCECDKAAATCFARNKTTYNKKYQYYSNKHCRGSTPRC
Procedure: Assay for Inhibition of HSF-PLA2 In Vitro
The PLA2 used in this test is the extracellular enzyme obtained from human synovial fluid (HSF-PLA2).
The assay for HSF-PLA2 activity was a modification of the described method [Franson R., Dobrow R., Weiss, J., Elsbach P., and Weglick W. B., J. Lipid Res., 19, 18-23 (1978)] which was conducted using [1-^14 C]-oleate-labelled E. coli substrate in excess at a final concentration of 20,000 dpm/ml. This was equivalent to 18.2 mM of cell membrane phospholipid phosphorus and 2×10^9 autoclaved E. coli/ml. The optimal conditions which were developed for the assay of HSF-PLA2 inhibitors are summarized as follows. A total volume of 0.5 ml of reaction mixture typically had the following final composition: substrate (20,000 dpm/ml); enzyme (0.1% HSF, v/v); 2 mM CaCl2; 150 mM Na^+; 50 mM sodium HEPES buffer, pH 7.3; and 1% dimethyl sulfoxide (DMSO, used to solubilize test inhibitors) in the presence or absence of inhibitor. The reaction was initiated by the addition of HSF-PLA2 and duplicate samples of the mixture were incubated in 13×100 mm glass tubes with shaking for 30 minutes at 37° C. The reaction was terminated by the addition of 2.5 ml of chloroform-methanol (1 to 1.5, v/v). The extraction of lipids from the stopped reaction mixture was conducted by the further additions of 0.5 ml of chloroform and 1 ml of water with mixing. After centrifuging, the lower chloroform phase was transferred to smaller glass tubes and the solvent was evaporated to dryness with a nitrogen stream. The extracted lipid residue was redissolved in […] of a solution containing carrier oleic acid (0.2 mg/ml) in chloroform-methanol [9 to 1, v/v]). The whole lipid extract was applied to a preactivated (30 minutes at 110° C.) silica gel-impregnated glass fiber thin layer chromatography sheet (ITLC type SG sheet from Gelman Sciences Inc., Ann Arbor, Mich.) using hexane-acetic acid (100 to 1, v/v) as the developing solvent. This TLC system rapidly (6 minutes) resolved the enzymatically released product, ^14 C-oleic acid, from the unreacted ^14 C-phospholipid substrate. The unsaturated lipids were located on the chromatogram by a brief exposure to iodine vapor. The oleic acid zone (Rf value 0.95) and phospholipid zone (origin) were cut out, chopped into small pieces, shaken with 2 ml of ethanol-water (80 to 20, v/v) and 15 ml of Aquasol and counted for radio-activity. A control incubation of substrate in the absence of HSF-PLA2 was performed in each experiment. The PLA2 activity of the human synovial fluid was corrected for this small control value. […] The specific activity of PLA2 in the pooled human synovial fluid under the optimal assay conditions was 49.2 nmoles [1-^14 C]-oleic aid released hour^-1 mg^-1. The IC50 (μM concentration of test compound that produces 50% inhibition of PLA2 activity) was determined for each test compound.

[2] = system: croton oil-induced mouse ear edema; experiment: Croton oil mouse ear edema test; assay type: in vivo, male CD-1 mice; conditions: 1 mg topical, coapplied with croton oil; ear punch weight at 6 hours
Procedure: Croton Oil Mouse Ear Edema Test
The croton oil-induced mouse ear edema test, a model of irritant-induced contact dermatitis, has been used for evaluation of the PLA2 inhibitors by the topical route of administration. This test was carried out as described in the following references: […]
Twenty five μl of a 1% croton oil solution [dissolved in a mixture of pyridine/water/diethyl ether at a ratio of 5/20/75 (croton oil vehicle)] are applied to the outer side of the right ear of 3-4 week old male CD-1 mice (8 animals per group). The test compounds are dissolved directly in the 1% croton oil solution at various concentrations and coapplied. Control animals receive 25 μl of croton oil vehicle on the right ear. Biopsy punches are removed at 6 hours from the right ear of the animals using a 6 mm skin trephine (Roboz, Washington, D.C.) and the wet weight of the ear punches is determined. The weight of the biopsy punches is a measure of ear inflammation, primarily edema. The data are expressed as percent inhibition relative to control groups.
Statistical analysis of the mean edema values of the control versus the treated groups is performed using Student's t-test. The significance of changes from mean value for vehicle-treated animals is as follows (*p<0.05, **p<0.01, ***p<0.005, ns/not significant).

SMILES	inhibition at 5 µM [1]	% Inhib of Croton Oil Mouse Ear Edema (1 mg) [2]	inhibition at 1 µM [1]
CCCCCCCCCCCCCCOc1cccc(C(=O)N(CC(=O)O)CC(=O)O)c1 [Example 5, N-(Carboxymethyl)-N-[3-(tetradecyloxy)benzoyl]glycine]	13%	–	–
CCCCCCCCCCOc1cccc(C(=O)N(CC(=O)O)CC(=O)O)c1 [Example 6, N-(Carboxymethyl)-N-[3-(decyloxy)benzoyl]glycine]	8%	47%	–
CCCCCCCCCCCCCCCCCC(=O)Nc1cccc(C(=O)N(CC(=O)O)CC(=O)O)c1 [Example 9, N-(carboxymethyl)-N-[3-(1-oxooctadecylamino)benzoyl]glycine]	8%	20%	–
CCCCCCCCCCCCCCOc1cc(OCCCCCCCCCCCCCC)cc(C(=O)N(CC(=O)O)CC(=O)O)c1 [Example 13, N-(Carboxymethyl)-N-[3,5-bis(tetradecyloxy)benzoyl]glycine]	–	60%	27%
CCCCCCCCCCCCCCCCCCOc1cc(OCCCOc2ccccc2)cc(C(=O)N(CC(=O)O)CC(=O)O)c1 [Example 18, N-(Carboxymethyl)-N-[3-[3-(phenoxy)propoxy]-5-(octadecyloxy)benzoyl]glycine]	72%	59%	–
CCCCCCCCCCCCCCCCCCOc1cc(OCCCOc2ccc(OC)cc2)cc(C(=O)N(CC(=O)O)CC(=O)O)c1 [Example 20, N-(carboxymethyl)-N-[3-[3-(4-methoxyphenoxy)propoxy]-5-(octadecyloxy)benzoyl]glycine]	–	–	18%
CCCCCCCCCCCCCCCCCCOc1cc(OCCCOc2cccc([N+](=O)[O-])c2)cc(C(=O)N(CC(=O)O)CC(=O)O)c1 [Example 22, N-(Carboxymethyl)-N-[3-[3-(3-nitrophenoxy)propoxy]-5-(octadecyloxy)benzoyl]glycine]	60%	54%	–
CCCCCCCCCCCCCCCCCCOc1cc(OCCCOc2cccc(N)c2)cc(C(=O)N(CC(=O)O)CC(=O)O)c1 [Example 23, N-(Carboxymethyl)-N-[3-[3-(3-aminophenoxy)propoxy]-5-(octadecyloxy)benzoyl]glycine]	50%	21%	–
CCCCCCCCCCCCCCCCCCOc1cc(OCCOc2ccc3ccccc3c2)cc(C(=O)N(CC(=O)O)CC(=O)O)c1 [Example 25]	-16%	44%	–
CCCCCCCCCCCCCCCCCCOc1cc(C(=O)O)cc(C(=O)N(CC(=O)O)CC(=O)O)c1 [Example 30, N-(Carboxymethyl)-N-[3-carboxy-5-(octadecyloxy)benzoyl]glycine]	23%	–	–
CCCCCCCCCCCCCCCCCCOc1cc(OCC(=O)O)cc(C(=O)N(CC(=O)O)CC(=O)O)c1 [Example 33, N-(Carboxymethyl)-N-[3-(carboxymethoxy)-5-(octadecyloxy)benzoyl]glycine]	–	71%	29%
O=C(O)CCCCCCCCCCOc1cc(OCCCCCCCCCCC(=O)O)cc(C(=O)N(CC(=O)O)CC(=O)O)c1 [Example 35, N-(carboxymethyl)-N-[3,5-bis[(10-carboxydecyl)oxy]benzoyl]glycine]	5%	50%	–
CCCCCCCCCCCCCCCCCCOc1cc(OCc2ccccc2)cc(C(=O)N(CC(=O)O)CC(=O)O)c1 [Example 38, N-(Carboxymethyl)-N-[3-(octadecyloxy)-5-(phenylmethoxy)benzoyl]glycine]	55%	35%	–
CCCCCCCCCCCCCCCCCCOc1cc(O)cc(C(=O)N(CC(=O)O)CC(=O)O)c1 [Example 39, N-(Carboxymethyl)-N-[3-hydroxy-5-(octadecyloxy)benzoyl]glycine]	20%	47%	–
CCCCCCCCCCCCCCCCCCOc1cc(C(=O)N(CC(=O)O)CC(=O)O)cc([N+](=O)[O-])c1 [Example 43, N-(carboxymethyl)-N-[3-nitro-5-(octadecyloxy)benzoyl]glycine]	10%	48%	–
CCCCCCCCCCCCCCCCCCOc1cc(N)cc(C(=O)N(CC(=O)O)CC(=O)O)c1 [Example 44, N-(Carboxymethyl)-N-[3-amino-5-(octadecyloxy)benzoyl]glycine]	34%	35%	–
CCCCCCCCCCCCCCOc1ccc(C(=O)N(CC(=O)O)CC(=O)O)cc1OCCCCCCCCCCCCCC [Example 51, N-(Carboxymethyl)-N-[3,4-bis(tetradecyloxy)benzoyl]glycine]	38%	–	–
CCCCCCCCCCCCCCCCCCOc1cccc(C(=O)C(=O)N(CC(=O)O)CC(=O)O)c1 [Example 69, N-(Carboxymethyl)-N-[2-[3-(octadecyloxy)phenyl]-1,2-dioxoethyl]glycine]	57%	28%	–
CCCCCCCCCCCCCCCCCCOc1cccc(C(=O)NCC(=O)O)c1 [Example 74, N-[3-(Octadecyloxy)benzoyl]glycine]	23%	33%	–
CCCCCCCCCCCCCCCCCCOc1cccc(CC(=O)N(CC(=O)O)CC(=O)O)c1 [Example 76, N-(Carboxymethyl)-N-[3-(octadecyloxy)phenylacetyl]glycine]	45%	38%	–
CCCCCCCCCCCCCCCCCCOc1cccc(/C=C/C(=O)N(CC(=O)O)CC(=O)O)c1 [Example 78, (E)-N-(carboxymethyl)-N-[3-[(3-octadecyloxy)phenyl]-1-oxo-2-propenyl]glycine]	68%	48%	–
CCCCCCCCCCCCCCCCCCOc1cccc(CCC(=O)N(CC(=O)O)CC(=O)O)c1 [Example 79, N-(Carboxymethyl)-N-[3-[(3-octadecyloxy)phenyl]-1-oxopropyl]glycine]	70%	–	–
